Assay results published in PubChem BioAssay (NCI).
“And” between values parts separate entries of the source, which are not always exact repeats. Equal entries are not always repeated.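 Following 48 hours of exposure in 96-well plates, responses at five concentrations were used to interpolate endpoints linearly. GI50: concentration for 50% inhibition of growth. TGI denotes the concentration required for complete inhibition of growth.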

How the values were obtained:
Assay in all cases: growth of human tumour cells (NCI), 48 h
[1] = system: 786-0 renal
[2] = system: A549 NSCLC
[3] = system: BT-549 breast
[4] = system: DU-145 prostate
[5] = system: K-562 leukemia
[6] = system: LOX IMVI melanoma
[7] = system: MALME-3M melanoma
[8] = system: NCI-H522 lung
[9] = system: SF-295 CNS
[10] = system: SK-MEL-2 melanoma

Compound | GI50 [1] | TGI [1] | GI50 [2] | TGI [2] | GI50 [3] | TGI [4] | GI50 [5] | TGI [5] | GI50 [6] | TGI [6] | GI50 [7] | TGI [8] | GI50 [9] | TGI [9] | TGI [10] | TGI [3] | GI50 [4] | TGI [7] | GI50 [10] | GI50 [8]
CO[C@H]1C[C@@H]2CC[C@@H](C)[C@@](O)(O2)C(=O)C(=O)N2CCCC[C@H]2C(=O)O[C@H]([C@H](C)C[C@@H]2CC[C@@H](OCCO)[C@H](OC)C2)CC(=O)[C@H](C)C=C(C)[C@@H](O)[C@@H](OC)C(=O)[C@H](C)C[C@H](C)/C=C/C=C/C=C1C | < 0.01 µM | 20.7 µM | < 0.01 µM | 22.3 µM | < 0.01 µM | 16.5 µM | 2.41 µM | 31.4 µM | < 0.01 µM | 17.8 µM | < 0.01 µM | 17.7 µM | < 0.01 µM | 17.3 µM | 21.4 µM | – | – | – | – | –
CCCCCCCCCCCCCC[C@@H](O)[C@H]1CC[C@H]([C@H]2CC[C@H]([C@H](O)CCCCCC[C@@H](O)CC3=C[C@H](C)OC3=O)O2)O1 | 4.31 µM | > 25 µM | 1.59 µM | > 25 µM | 1.88 µM | > 25 µM | 1.47 µM | > 25 µM | – | 2.56 µM and > 25 µM | – | > 25 µM | 1.18 µM | > 25 µM | 3.86 µM and > 25 µM | 4.86 µM and > 25 µM | > 25 µM | > 25 µM | 1.52 µM | –
O=[N+]([O-])c1cccc(C2CC(c3ccccc3)=Nc3ccccc3S2)c1 (configuration not stated) | 17.3 µM | 31.6 µM | 30.6 µM | > 100 µM | 13.2 µM | 34.3 µM | 3.76 µM | > 100 µM | 3.02 µM | 11.9 µM | 17.9 µM | 23.5 µM | 25.1 µM | 77.7 µM | 43.6 µM | 26.7 µM | 16.8 µM | 46.1 µM | 21 µM | 10.8 µM
CN(CC(=O)N(Cc1ccc(C2CCCCC2)cc1)c1ccc(C(=O)O)cc1)S(=O)(=O)c1c(F)c(F)c(F)c(F)c1F | 2.28 µM | 5.22 µM | 6.59 µM | 21.6 µM | 2.23 µM | 3.11 µM | 1.93 µM | 5.81 µM | 1.61 µM | 3.03 µM | 1.7 µM | 3.65 µM | 15.2 µM | 29.4 µM | 3.68 µM | 4.36 µM | 1.74 µM | 3.64 µM | 2.06 µM | 1.77 µM
COc1ccc(N=N/C(C(=O)C(F)(F)F)=C(\O)c2ccc(Cl)cc2)cc1 | 6.63 µM | 83.6 µM | 3.83 µM | 16.8 µM | 7.04 µM | 70.8 µM | 3.47 µM | > 100 µM | 3.29 µM | 21.5 µM | 16.1 µM | 32.1 µM | 2.67 µM | 11.9 µM | 8.68 µM | 47.2 µM | 14.6 µM | 85.6 µM | 2.78 µM | 4.93 µM
Cc1cc(N2CCN(C)CC2)n2nc(-c3ccc(Cl)cc3)nc2n1 | – | > 100 µM | – | > 100 µM | – | > 100 µM | – | > 100 µM | – | > 100 µM | – | > 100 µM | – | > 100 µM | > 100 µM | > 100 µM | – | > 100 µM | – | –
CSC(=Nc1ccccc1)/N=C(\SCc1ccccc1)N(C)C | – | 1.78 µM | – | 4.63 µM | – | 2.13 µM | – | > 100 µM | – | 0.383 µM | – | 0.54 µM | – | 2.89 µM | 3.44 µM | 2.86 µM | – | 2.65 µM | – | –
COc1cc2cc(Oc3ccc(NC(=O)Nc4ccc(Cl)c(Cl)c4)cc3)c(C)nc2cc1OC | 3.64 µM | 17.7 µM | 1.64 µM | 7.61 µM | 2.4 µM | 17.1 µM | 3.33 µM | > 100 µM | 3.45 µM | 14.6 µM | 3.02 µM | 8.43 µM | 1.96 µM | 6.08 µM | 6.54 µM | 11.7 µM | 4.27 µM | 7.72 µM | 3 µM | 1.74 µM
CCN(CC)Cc1cc2[nH]c3c4ccc(Cl)cc4ncc3c2cc1OC | 2.2 µM and 2.59 µM | 4.82 µM and 5.61 µM | 3.46 µM and 3.16 µM | 13.3 µM and 10.5 µM | 13.7 µM and 16 µM | 9.18 µM and 6.38 µM | 3.39 µM and 1.89 µM | > 20.5 µM and 4.28 µM | 1.73 µM and 1.7 µM | 3.43 µM and 3.23 µM | 1.72 µM and 1.99 µM | 17.7 µM and 4.97 µM | 4.98 µM and 1.95 µM | 9.67 µM and 4.01 µM | 16.6 µM and 31.6 µM | 27.2 µM and 29.6 µM | 3 µM and 2.46 µM | 3.33 µM and 3.75 µM | 7.39 µM and 16.5 µM | 7.16 µM and 2.2 µM
O=C(Nc1nc2ccccc2s1)Nc1ccc([N+](=O)[O-])cc1Cl | 1.92 µM | 3.7 µM | 2.17 µM | 5.7 µM | 2.04 µM | 7.74 µM | 3.48 µM | > 100 µM | 2.66 µM | 6.7 µM | 2.82 µM | 10.2 µM | 3.31 µM | 15.8 µM | 26.9 µM | 7.68 µM | 3.08 µM | 11.1 µM | 12.7 µM | 2.74 µM
